Results taken from patent publication US20250066286A1, “COMPOSITIONS OF (Z)-ENDOXIFEN AND METHODS OF ENRICHMENT THEREOF” (Atossa Therapeutics, Inc., priority 2022, published 2025).
Converted amounts (≈) assume the structure as drawn. Where two headings read alike, the source gives them in different places.

Experiment: Solubility testing of (Z)-endoxifen in single solvents
Type: physicochemical
Details: for solubility at 15 min: 25 °C, room temperature; for solubility at 15 min / solubility: thermodynamic from solid
Procedure: To test the solubility of (Z)-endoxifen in varying conditions, 10 mg of (Z)-endoxifen was added to a stoppered tube, and 0.01 ml of the selected solvent was added (1000 mg/ml solution). The tube was shaken vigorously for 1 minute and then incubated at a constant temperature of 25.0° C. for 15 minutes. If the solid was not completed dissolved, the tube was shaken again and placed at the constant temperature of 25.0° C. for another 15 minutes. If the solid was completely dissolved at this step, it was considered to be very soluble in the selected solvent system. If the solid was not dissolved by this step, another 0.09 ml was added (yielding a 100 mg/ml solution) and an attempt to further dissolve the solid was made by the same steps of shaking and incubating twice over as described previously. If the solid was completely dissolved at this step, it was considered freely soluble. If the solid was not dissolved by this step another 0.2 ml was added (yielding a 33.3 mg/ml solution) and an attempt to further dissolve the solid was made by the same steps of shaking and incubating twice over as described previously. If the solid was completely dissolved at this step, it was considered soluble. If the solid was not dissolved by this step another, 0.7 ml was added (yielding a 10 mg/ml solution) and an attempt to further dissolve the solid was made by the same steps of shaking and incubating twice over as described previously. If the solid was completely dissolved at this step, it was considered sparingly soluble. If the solid was not dissolved by this step the sample was considered to be slightly soluble or very slightly soluble and the solution was heated until the boiling point of the solvent system (max 100° C.) under stirring with a rate of 0.5° C. per minute temperature ramp rate to verify the solubility at high temperatures. The hot solution was after cooled to room temperature with a cooling rate of 0.5° C. per minute to verify if the sample had precipitated after up to 18 hours under magnetic stirring. The same procedure was also used for the solvent mixture solubility tests. The concentrations investigated for the solvent mixture stability were 40 mg/ml and 100 mg/ml. Some solutions in the following example were precipitated by cooling of the solution from a temperature between 50-100° C. to between 10-25° C. at a rate ranging from −0.2 to −0.5° C./minute resulting in a precipitate.

[1] = solvent butyl acetate, 100 mg/mL
[2] = solvent ethyl acetate, 100 mg/mL
[3] = solvent methyl isobutyl ketone (4-methyl-2-pentanone), 100 mg/mL
[4] = solvent methyl isobutyl ketone (4-methyl-2-pentanone), 200 mg/mL

CC/C(=C(\c1ccc(O)cc1)c1ccc(OCCNC)cc1)c1ccccc1 [(Z)-endoxifen, (Z)-4-(1-(4-(2-(methylamino)ethoxy)phenyl)-2-phenylbut-1-enyl)phenol]
Solubility HT (10 mg/mL): Clear point (solvent butyl acetate, 10 mg/mL): 50 °C | Solubility HT (10 mg/mL): Sol. HT (solvent butyl acetate, 10 mg/mL, high temperature): YES | Solubility HT (20 mg/mL): Clear point (solvent butyl acetate, 20 mg/mL): 56.8 °C | Solubility HT (20 mg/mL): Sol. HT (solvent butyl acetate, 20 mg/mL, high temperature): YES | Solubility HT (100 mg/mL): Clear point [1]: 94.5 °C | Solubility HT (100 mg/mL): Cloudy point [1]: 25 °C | Solubility HT (100 mg/mL): Sol. HT (solvent butyl acetate, 100 mg/mL, high temperature): YES | Solubility HT (100 mg/mL): Re-PPT (solvent butyl acetate, 100 mg/mL, on cooling): YES | Solubility HT (10 mg/mL): Clear point (solvent ethanol, 10 mg/mL): 34 °C | Solubility HT (10 mg/mL): Sol. HT (solvent ethanol, 10 mg/mL, high temperature): YES | Solubility HT (20 mg/mL): Clear point (solvent ethanol, 20 mg/mL): 34 °C | Solubility HT (20 mg/mL): Sol. HT (solvent ethanol, 20 mg/mL, high temperature): YES | Solubility HT (20 mg/mL): Re-PPT (solvent ethanol, 20 mg/mL, on cooling): YES | Solubility HT (100 mg/mL): Clear point (solvent ethanol, 100 mg/mL): 66 °C | Solubility HT (100 mg/mL): Cloudy point (solvent ethanol, 100 mg/mL): 39.7 °C | Solubility HT (100 mg/mL): Sol. HT (solvent ethanol, 100 mg/mL, high temperature): YES | Solubility HT (100 mg/mL): Re-PPT (solvent ethanol, 100 mg/mL, on cooling): YES | Solubility HT (10 mg/mL): Clear point (solvent ethyl acetate, 10 mg/mL): 38 °C | Solubility HT (10 mg/mL): Sol. HT (solvent ethyl acetate, 10 mg/mL, high temperature): YES | Solubility HT (20 mg/mL): Clear point (solvent ethyl acetate, 20 mg/mL): 49.2 °C | Solubility HT (20 mg/mL): Sol. HT (solvent ethyl acetate, 20 mg/mL, high temperature): YES | Solubility HT (100 mg/mL): Clear point [2]: 74.4 °C | Solubility HT (100 mg/mL): Cloudy point [2]: 54.2 °C | Solubility HT (100 mg/mL): Sol. HT (solvent ethyl acetate, 100 mg/mL, high temperature): YES | Solubility HT (100 mg/mL): Re-PPT (solvent ethyl acetate, 100 mg/mL, on cooling): YES | Solubility HT (10 mg/mL): Clear point (solvent methyl isobutyl ketone (4-methyl-2-pentanone), 10 mg/mL): 44 °C | Solubility HT (10 mg/mL): Sol. HT (solvent methyl isobutyl ketone (4-methyl-2-pentanone), 10 mg/mL, high temperature): YES | Solubility HT (20 mg/mL): Clear point (solvent methyl isobutyl ketone (4-methyl-2-pentanone), 20 mg/mL): 49.3 °C | Solubility HT (20 mg/mL): Sol. HT (solvent methyl isobutyl ketone (4-methyl-2-pentanone), 20 mg/mL, high temperature): YES | Solubility HT (100 mg/mL): Clear point [3]: 74.8 °C | Solubility HT (100 mg/mL): Re-PPT after 18 hours at −20° C. [3]: YES | Solubility HT (100 mg/mL): Sol. HT (solvent methyl isobutyl ketone (4-methyl-2-pentanone), 100 mg/mL, high temperature): YES | Solubility HT (200 mg/mL): Clear Point [4]: 84 °C | Solubility HT (200 mg/mL): Cloudy point [4]: 48.5 °C | Solubility HT (200 mg/mL): Sol. HT (solvent methyl isobutyl ketone (4-methyl-2-pentanone), 200 mg/mL, high temperature): YES | Solubility HT (200 mg/mL): Re-PPT (solvent methyl isobutyl ketone (4-methyl-2-pentanone), 200 mg/mL, on cooling): YES | Solubility HT (10 mg/mL): Clear point (solvent toluene, 10 mg/mL): 66 °C | Solubility HT (10 mg/mL): Sol. HT (solvent toluene, 10 mg/mL, high temperature): YES | Solubility HT (20 mg/mL): Clear point (solvent toluene, 20 mg/mL): 77.8 °C | Solubility HT (20 mg/mL): Sol. HT (solvent toluene, 20 mg/mL, high temperature): YES | Solubility HT (100 mg/mL): Clear point (solvent toluene, 100 mg/mL): 96.6 °C | Solubility HT (100 mg/mL): Cloudy point (solvent toluene, 100 mg/mL): 25 °C | Solubility HT (100 mg/mL): Sol. HT (solvent toluene, 100 mg/mL, high temperature): YES | Solubility HT (100 mg/mL): Re-PPT (solvent toluene, 100 mg/mL, on cooling): YES | solubility at 15 min (t-butyl methyl ether, organic solvent or mixture, t-butyl methyl ether, read-out: Solubility): < 10000 µg/mL | solubility (t-butyl methyl ether, organic solvent or mixture, t-butyl methyl ether, high temperature, read-out: Solubility): < 10000 µg/mL | solubility at 15 min (tetrahydrofuran, organic solvent or mixture, solvent tetrahydrofuran, read-out: Solubility at RT): 111000 to 125000 µg/mL (≈ 297 to 335 mM) | solubility at 15 min (toluene, organic solvent or mixture, solvent toluene, read-out: Solubility at RT): 10000 µg/mL (≈ 26.8 mM) | solubility at 15 min (toluene, organic solvent or mixture, toluene, read-out: Solubility): 10000 µg/mL (≈ 26.8 mM) | solubility (toluene, organic solvent or mixture, toluene, high temperature, read-out: Solubility): 20000 to 100000 µg/mL (≈ 53.5 to 268 mM) | solubility at 15 min (water, water, solvent water, read-out: Solubility at RT): < 10000 µg/mL | solubility at 15 min (water, water, water, read-out: Solubility): < 10000 µg/mL | solubility (water, 100 °C, water, solvent water, 10 mg/mL, high temperature, read-out: Solubility HT (10 mg/mL): Sol. HT): < 10000 µg/mL | solubility (water, 100 °C, water, water, high temperature, read-out: Solubility): < 10000 µg/mL
